Experimental data published in US20240010726A1, “LFA-1 SIGNALLING MEDIATOR FOR USE IN CANCER THERAPY” (Universität Basel, priority 2020, published 2024).

Key:
human naïve CD8 T cells = experiment: Metabolic flux analysis, glycolytic switch of naïve CD8 T cells; type: cell-based; conditions: anti-CD3 or anti-CD3/anti-CD28 Ab; 0 mM vs 1.2 mM Mg^2+
Protocol: FIG. 2: Extracellular magnesium promotes memory-specific activation via LFA-1. Glycolytic switch of human EM CD8 T cells (a) and naïve CD8 T cells (b) subsets upon injection of anti-CD3 Ab only, or anti-CD3 and anti-CD28 Ab, was assessed by metabolic flux analysis in medium containing either 1.2 mM Mg^2+, 0 mM Mg^2+, or medium which was reconstituted from 0 mM to 1.2 mM Mg^2+ immediately prior to activation (0→1.2 mM Mg^2+). (a) Results for human effector memory (EM) and (b) for human naïve CD8 T cells. Glycolytic switch was quantified by subtracting […] measurements. (c) Flow cytometric analysis of surface activation markers on human EM CD8 T cells 24 hours after activation by plate-bound anti-CD3 Ab and soluble anti-CD28 Ab, in 1.2 mM and 0 mM Mg^2+ media, respectively. (d) Abundance of inflammatory cytokines in corresponding EM CD8 T cell culture supernatants, determined by CBA. (e) CD11a (LFA-1) surface expression on human naïve and EM CD8 T cells as well PHA T cell blasts. Flow cytometry-based assessment of total LFA-1 expression assessed by mAb TS2/4 (f), closed conformation of αL by mAb HI111 (g), extended conformation of LFA-1 by mAb Kim127 (h), open head-piece conformation of LFA-1 by mAb m24 (i), phosphorylation of focal adhesion kinase (FAK) […] as well TNF expression (k)±TCR-induced activation in different extracellular Mg^2+ concentrations. […]

human EM CD8 T cells = experiment: Cytometric bead array of cytokines in EM CD8 T cell culture supernatants; type: cell-based; conditions: Mg^2+-restricted (0 mM) vs 1.2 mM Mg^2+; 24 h
Protocol: FIG. 2: Extracellular magnesium promotes memory-specific activation via LFA-1. Glycolytic switch of human EM CD8 T cells (a) and naïve CD8 T cells (b) subsets upon injection of anti-CD3 Ab only, or anti-CD3 and anti-CD28 Ab, was assessed by metabolic flux analysis in medium containing either 1.2 mM Mg^2+, 0 mM Mg^2+, or medium which was reconstituted from 0 mM to 1.2 mM Mg^2+ immediately prior to activation (0→1.2 mM Mg^2+). (a) Results for human effector memory (EM) and (b) for human naïve CD8 T cells. Glycolytic switch was quantified by subtracting […] measurements. (c) Flow cytometric analysis of surface activation markers on human EM CD8 T cells 24 hours after activation by plate-bound anti-CD3 Ab and soluble anti-CD28 Ab, in 1.2 mM and 0 mM Mg^2+ media, respectively. (d) Abundance of inflammatory cytokines in corresponding EM CD8 T cell culture supernatants, determined by CBA. (e) CD11a (LFA-1) surface expression on human naïve and EM CD8 T cells as well PHA T cell blasts. Flow cytometry-based assessment of total LFA-1 expression assessed by mAb TS2/4 (f), closed conformation of αL by mAb HI111 (g), extended conformation of LFA-1 by mAb Kim127 (h), open head-piece conformation of LFA-1 by mAb m24 (i), phosphorylation of focal adhesion kinase (FAK) […] as well TNF expression (k)±TCR-induced activation in different extracellular Mg^2+ concentrations. (l) Flow cytometry-based assessment of LFA-1 with open-head piece conformation on human EM and naïve CD8 T cells using the open head-piece reporter mAb m24. (m) Assessment of glycolytic switch of EM CD8 T cells. (n) Assessment of glycolytic switch of naïve CD8 T cells. […] Cytokine concentrations in cell culture supernatants were determined using the LegendPlex cytrometric bead Array human […]) according to manufacturer's instructions.

[Mg+2] [Mg^2+, Magnesium]
Glycolytic switch (ECAR) of naïve CD8 T cells (human naïve CD8 T cells): no impaired activation-induced upregulation of glycolysis | IFNγ secretion (human EM CD8 T cells): decreased production | IL-2 secretion (human EM CD8 T cells): decreased production | TNF secretion (human EM CD8 T cells): decreased production
